Measurements published in US20080247987A1, “Block Copolymer Compositions and Uses Thereof” (ANGIOTECH INTERNATIONAL AG, priority 2005, published 2008).
Values after ≈ are worked out from the molar mass of the structure shown. Where two headings read alike, the source gives them in different places.

Columns and labels:
[1] = cited from earlier work
[2] = test system: prostate cancer; details: in vitro; cited from earlier work
[3] = test system: prostate cancer; details: in vivo; cited from earlier work
[4] = test system: carrageenin-induced arthritis; test: Inflammatory carrageenin-induced arthritis model; assay type: in vivo; details: rabbits
[5] = test system: arthritis after anterior cruciate ligament transection; test: Surgical transection of the anterior cruciate ligament (mechanical arthritis model); assay type: in vivo, Hartley Guinea pigs; details: introduced into the joint
Description: Hartley Guinea pigs subjected to surgical transaction of the anterior cruciate ligament represent a mechanical model for arthritis. Typically after the anterior cruciate is severed, the animals develop arthritis within several weeks.

[6] = test system: neutrophil; details: cited from earlier work
[7] = test system: T-cell; details: cited from earlier work
[8] = test system: synoviocytes; details: cited from earlier work
[9] = test system: AP-1; details: via reduced AP-1 binding to DNA; cited from earlier work
[10] = test system: collagen induced arthritis; details: animal model; cited from earlier work
[11] = test system: normal chondrocytes and non-proliferating synoviocytes; details: cited from earlier work
[12] = test system: human prostate cancer cell; details: in vitro; cited from earlier work
[13] = test system: angiogenesis; details: cited from earlier work
[14] = test system: advanced breast, ovarian and non-small cell lung cancer; details: in vivo; cited from earlier work
[15] = physchem; details: organic solvent or mixture, thermodynamic from solid
Description: The phase separation of the PEG400-TMC/Gly(90/10)900 triblock copolymer from PEG 300 in the presence of water was evaluated to predict its behavior upon dilution in a largely aqueous physiological environment. […] The phase separation is expected to form a PEG 300-rich phase and a PEG400-TMC/Gly(90/10)900-rich phase, the former containing the highest proportion of water. […] Solubility in the PEG 300-rich phase was estimated from co-solvent studies of water/PEG 300 mixtures.

[16] = test system: prostate tumors; details: via inhibition of angiogenesis; cited from earlier work

**Q.** With `O=c1c(-c2ccc(O)cc2)coc2cc(O)cc(O)c12` [Genistein] as the compound, how does the “solubility in water” value [1] read?
**A.** practically insoluble in water

**Q.** What does the source list for `CC[C@]1(O)C[C@@H]2CN(CCc3c([nH]c4ccccc34)[C@@](C(=O)OC)(c3cc4c(cc3OC)N(C)[C@H]3[C@@](O)(C(=O)OC)[C@H](OC(C)=O)[C@]5(CC)C=CCN6CC[C@]43[C@@H]65)C2)C1` [vinblastine]?
**A.** efficacy against prostate cancer [2]: some efficacy against prostate cancer; efficacy against prostate cancer [3]: some efficacy against prostate cancer

**Q.** For `CC(=O)O[C@H]1C(=O)[C@@]2(C)[C@H]([C@H](OC(=O)c3ccccc3)[C@]3(O)C[C@H](OC(=O)[C@H](O)[C@@H](NC(=O)c4ccccc4)c4ccccc4)C(C)=C1C3(C)C)[C@]1(OC(C)=O)CO[C@@H]1C[C@@H]2O` [Paclitaxel], which effect on cartilage [4] is on record?
**A.** demonstrated cartilage

**Q.** What about the “effect on arthritic process, cartilage and bone” value [5] of the same compound?
**A.** greatly retarded the arthritic process and protected not only the cartilage, but also the underlying bone, from breakdown

**Q.** And the solubility in water [1]?
**A.** 0.001 to 0.002 mg/mL

**Q.** What about the neutrophil activation [6] of the same compound?
**A.** inhibits neutrophil activation

**Q.** What about the T-cell function [7] of the same compound?
**A.** inhibits T-cell function

**Q.** What about the “T-cell response to stimuli” value [7] of the same compound?
**A.** decreases T-cell response to stimuli

**Q.** What about the apoptosis in synoviocytes [8] of the same compound?
**A.** induces apoptosis in synoviocytes

**Q.** What about the proliferation of synoviocytes [8] of the same compound?
**A.** prevents the proliferation of

**Q.** What about the AP-1 transcription activity [9] of the same compound?
**A.** inhibits AP-1 transcription activity

**Q.** What about the collagen induced arthritis [10] of the same compound?
**A.** inhibits collagen induced arthritis

**Q.** And the “toxicity to non-proliferating cells” value [11]?
**A.** non-toxic to non-proliferating cells

**Q.** And the “prostate cancer cell growth” value [12]?
**A.** inhibit human prostate cancer cell growth in vitro

**Q.** What about the angiogenesis [13] of the same compound?
**A.** potent inhibitory effect on angiogenesis

**Q.** What about the “efficacy against advanced cancers” value [14] of the same compound?
**A.** shown efficacy against advanced breast, ovarian and non-small cell lung cancer

**Q.** What about the solubility [15] of the same compound?
**A.** 250 mg/mL (≈ 293 mM)

**Q.** Which “efficacy against prostate cancer” value [2] does the source give for `C[C@]12CC[C@@H]3c4ccc(OC(=O)N(CCCl)CCCl)cc4CC[C@H]3[C@@H]1CC[C@@H]2O` [estramustine] here?
**A.** some efficacy against prostate cancer

**Q.** And the “efficacy against prostate cancer” value [3]?
**A.** some efficacy against prostate cancer

**Q.** For `CN(C(=O)c1c(O)c2ccccc2n(C)c1=O)c1ccccc1` [Linomide], which “antitumor and antimetastatic effects” value [16] is on record?
**A.** both antitumor and antimetastatic effects

**Q.** For `O=C1c2c(O)cccc2Cc2cccc(O)c21` [Anthralin], which “solubility in water” value [1] is on record?
**A.** practically insoluble in water

**Q.** For `CC1=C(/C=C/C(C)=C/C=C/C(C)=C/C(=O)O)C(C)(C)CCC1` [Tretinoin], which “solubility in water” value [1] is on record?
**A.** practically insoluble in water

**Q.** Which solubility in water [1] does the source give for `CC[C@@]1(O)C(=O)OCc2c1cc1n(c2=O)Cc2cc3ccccc3nc2-1` [Camptothecin] here?
**A.** 0.001 to 0.002 mg/mL

**Q.** Which “solubility in water” value ([1]; pH 6 to 7) does the source give for `C[C@@H]1[C@H](O)[C@@H](C)/C=C/C=C/C=C/C=C/C=C/C=C/C=C/[C@H](O[C@@H]2O[C@H](C)[C@@H](O)[C@H](N)[C@@H]2O)C[C@@H]2O[C@](O)(C[C@@H](O)C[C@@H](O)[C@H](O)CC[C@@H](O)C[C@@H](O)CC(=O)O[C@H]1C)C[C@H](O)[C@H]2C(=O)O` [Amphotericin] here?
**A.** insoluble in water

**Q.** Which “solubility in water” value [1] does the source give for `COc1cc(/C=C/C(=O)CC(=O)/C=C/c2ccc(O)c(OC)c2)ccc1O` [Curcumin] here?
**A.** practically insoluble in water

**Q.** Which “solubility in water” value [1] does the source give for `COc1ccc2c(c1)c(CC(=O)O)c(C)n2C(=O)c1ccc(Cl)cc1` [Indomethacin] here?
**A.** practically insoluble in water
